From US20110059850A1, “PHYTOTOXIC HALOGENATED DERIVATIVES OF BENZOXAZINONES” (UNIVERSIDAD DE CÁDIZ, priority 2006, published 2011)

Key:
[1] = test system: Lolium rigidum L. (ryegrass), common biotype and biotype multiresistant to herbicides SLR31; assay: phytotoxicity bioassay in Petri dishes, L. rigidum biotypes; assay type: in vivo; details: common biotype versus multiresistant biotype SLR31
Protocol: (§1) The phytotoxicity bioassays for the compounds object of the invention are performed by means of the protocol of phytotoxicity bioassays in Petri dishes developed by the Grupo de Alelopatía de Cádiz (Cádiz Allelopathy Group) (see, for example: Macías, F. A.; Castellano, D.; Molinillo, J. M. G.; J. Agric. Food Chem. 2000, 48, 6, 2512-2521).
(§2) This assay attempts to imitate the natural conditions of the action of the products to be assayed on seeds of selected plant species, therefore the products are supplied in the form of aqueous solution in a Petri dish in which a certain number of seeds of each receiving species is introduced. The concentration range used allows observing the relationship between the phytotoxic activity of the product and its concentration. The dilutions assayed were 10^−3 M, 5·10^−4 M, 10^−4 M, 5·10^−5 M, 10^−5 M, 5·10^−6 M, 10^−6 M, 5·10^−7, 10^−7 and 5·10^−8. These solutions are buffered at pH=6 using to that end a 10 mM solution of 2-[N-morpholino]-ethanesulfonic acid (MES) the pH of which is adjusted to the desired value by means of adding a 1M solution of NaOH. The blank of this experiment is distilled and deionized water also buffered with MES but in which there is no product dissolved. […]

[2] = test system: Lepidium sativum L. (watercress); assay: phytotoxicity bioassay in Petri dishes, radicle length; assay type: in vivo; details: sigmoid type dose-response model, pH 6, 25° C., dark
Protocol: as §1, §2

SMILES	most affected L. rigidum biotype [1]	IC50 [2] [µM]
O=C1COc2ccc(Cl)cc2N1O [VII, 6-chloro-4-hydroxy-(2H)-1,4-benzoxazin-3(4H)-one]	the opposite trend	~0.058
O=C1COc2ccc(F)cc2N1O [Compound II, 6-fluoro-4-hydroxy-(2H)-1,4-benzoxazin-3(4H)-one]	the multiresistant biotype was the most affected	–
